Key:
[1] = system: phosphorus and calcium levels in the urine of rats; test: Urinary excretion of phosphate and calcium in rats (16 h overnight urine); type: in vivo, rat; conditions: rats, oral gavage, 16 h post-dose
[2] = system: absorption of sodium from the intestinal lumen; test: Fecal form score (FFS) 16 h after oral dose in rats; type: in vivo, rat; conditions: oral gavage, 16 h post-dose, scale 1-5
In short: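 Eight-week-old Sprague-Dawley rats (n=6) dosed by oral gavage with compound or water vehicle between 4 and 5 PM, then housed in metabolic cages with food and water ad libitum. At 16 h, fecal form scored 1 (normal pellet) to 5 (liquid streams) by two observers; group mean reported.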

[3] = molecular target: T1, Rat NHE3 (Rattus norvegicus, UniProt P26433); test: Cell-based NHE3 activity under prompt conditions (OK cells, BCECF pH recovery), rat NHE3; conditions: prompt conditions
T1 construct: expressed in transfected cells; host or cells: Opossum kidney (OK) cells (ATCC), electroporation
T1 sequence (P26433 29-831): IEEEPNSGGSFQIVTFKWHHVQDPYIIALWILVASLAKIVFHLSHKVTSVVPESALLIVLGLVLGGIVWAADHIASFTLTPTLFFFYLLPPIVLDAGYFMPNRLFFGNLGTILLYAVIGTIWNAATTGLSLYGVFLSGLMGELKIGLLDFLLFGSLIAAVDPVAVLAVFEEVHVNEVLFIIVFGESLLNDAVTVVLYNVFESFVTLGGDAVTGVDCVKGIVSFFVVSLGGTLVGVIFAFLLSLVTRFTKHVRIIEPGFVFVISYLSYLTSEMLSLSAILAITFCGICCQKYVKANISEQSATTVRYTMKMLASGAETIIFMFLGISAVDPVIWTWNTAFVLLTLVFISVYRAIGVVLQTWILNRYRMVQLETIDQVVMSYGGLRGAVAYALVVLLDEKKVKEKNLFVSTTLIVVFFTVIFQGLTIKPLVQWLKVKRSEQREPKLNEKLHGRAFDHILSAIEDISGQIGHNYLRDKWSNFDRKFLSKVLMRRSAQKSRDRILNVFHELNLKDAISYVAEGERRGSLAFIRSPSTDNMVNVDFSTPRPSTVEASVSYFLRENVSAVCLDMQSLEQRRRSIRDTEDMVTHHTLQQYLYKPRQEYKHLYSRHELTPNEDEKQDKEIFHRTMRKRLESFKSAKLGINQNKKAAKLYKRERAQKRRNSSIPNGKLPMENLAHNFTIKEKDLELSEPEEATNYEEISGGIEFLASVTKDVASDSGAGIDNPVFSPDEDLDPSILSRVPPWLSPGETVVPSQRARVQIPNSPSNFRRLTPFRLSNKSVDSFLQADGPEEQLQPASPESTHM
In short: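 OK cells electroporated with rat or human NHE3 gene, loaded 30 min at room temperature with 5 μM BCECF-AM in NH4Cl-HEPES pH 7.4.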

[4] = molecular target: T2, Human NHE3 (Homo sapiens, UniProt P48764); test: Cell-based NHE3 activity under prompt conditions (OK cells, BCECF pH recovery), human NHE3; conditions: prompt conditions
T2 construct: expressed in transfected cells; host or cells: Opossum kidney (OK) cells (ATCC), electroporation
T2 sequence (P48764 26-834): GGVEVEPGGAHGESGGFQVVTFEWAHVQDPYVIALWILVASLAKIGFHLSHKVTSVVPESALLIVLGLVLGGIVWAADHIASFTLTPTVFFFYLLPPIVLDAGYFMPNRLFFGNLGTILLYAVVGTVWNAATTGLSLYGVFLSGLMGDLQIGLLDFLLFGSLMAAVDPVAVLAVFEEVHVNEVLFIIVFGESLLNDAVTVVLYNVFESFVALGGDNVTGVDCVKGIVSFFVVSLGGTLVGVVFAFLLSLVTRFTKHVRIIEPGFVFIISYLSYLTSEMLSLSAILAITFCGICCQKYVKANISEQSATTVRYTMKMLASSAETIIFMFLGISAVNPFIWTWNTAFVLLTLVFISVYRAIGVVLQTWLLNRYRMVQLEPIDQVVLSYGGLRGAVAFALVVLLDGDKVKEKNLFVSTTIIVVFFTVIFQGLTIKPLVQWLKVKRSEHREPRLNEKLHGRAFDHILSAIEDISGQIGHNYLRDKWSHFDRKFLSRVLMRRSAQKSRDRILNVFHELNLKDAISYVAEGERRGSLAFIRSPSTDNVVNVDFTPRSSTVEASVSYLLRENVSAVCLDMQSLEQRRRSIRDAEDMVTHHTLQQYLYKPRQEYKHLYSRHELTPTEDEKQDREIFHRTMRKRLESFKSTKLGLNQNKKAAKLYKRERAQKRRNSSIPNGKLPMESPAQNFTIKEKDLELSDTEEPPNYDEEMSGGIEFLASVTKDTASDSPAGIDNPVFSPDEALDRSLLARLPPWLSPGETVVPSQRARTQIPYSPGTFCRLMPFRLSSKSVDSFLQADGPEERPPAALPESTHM
Method: Cell-based activity under Prompt Conditions. Rat or human NHE3-mediated Na^+-dependent H antiport was measured using a modification of the pH sensitive dye method originally reported by Paradiso (PNAS USA. 81:7436-7440, 1984). Opossum kidney (OK) cells were obtained from the ATCC and propagated per their instructions. The rat NHE3 gene (GenBank M85300) or the human NHE3 gene (GenBank NM_004174.1) was introduced into OK cells via electroporation, and cells were seeded into 96 well plates and grown overnight. Medium was aspirated from the wells, cells were washed twice with NaCl-HEPES buffer (100 mM NaCl, 50 mM HEPES, 10 mM glucose, 5 mM KCl, 2 mM CaCl2, 1 mM MgCl2, pH 7.4), then incubated for 30 min at room temperature with NH4Cl-HEPES buffer (20 mM NH4Cl, 80 mM NaCl, 50 mM HEPES, 5 mM KCl, 2 mM CaCl2, 1 mM MgCl2, pH 7.4) containing 5 μM bis(acetoxymethyl) 3,3′-(3′,6′-bis(acetoxymethoxy)-5-((acetoxymethoxy)carbonyl)-3-oxo-3H-spiro[isobenzofuran-1,9′-xanthene]-2′,7′-diyl)dipropanoate (BCECF-AM).
Cells were washed twice with Ammonium free, Na^+-free HEPES (100 mM choline, 50 mM HEPES, 10 mM glucose, 5 mM KCl, 2 mM CaCl2, 1 mM MgCl2, pH 7.4) and incubated in the same buffer for 10 minutes at room temperature to lower intracellular pH. […] Initial rates were plotted as the average 2 or more replicates, and pIC50 values were estimated using GraphPad Prism.
Cell-based activity of NHE3 Activity under ‘Prompt’ Conditions. This assay was performed as described in Example 1 (supra).

[5] = system: absorption of sodium from the intestinal lumen; test: Inhibition of intestinal sodium absorption: urinary sodium (uNa) 16 h after single oral dose in rats; type: in vivo, rat; conditions: oral gavage, 16 h post-dose
In short: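 Eight-week-old Sprague-Dawley rats (n=6) given single oral gavage of compound or water vehicle in the late afternoon, then kept in metabolic cages with chow and water ad libitum. Urine collected over 16 h; sodium quantified by ion chromatography and expressed as % of vehicle mean, compared by one-way ANOVA with Dunnett's test.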

SMILES | Urine P % of control ([1]; dose 3 mg/kg) [%] | Fecal Form Score average ([2]; dose 3 mg/kg) | Prompt Rat NHE3 pIC50 [3] | Prompt Human NHE3 pIC50 [4] | Urine Na % of control ([5]; dose 3 mg/kg) [%] | Urine P % of control ([1]; dose 10 mg/kg) [%] | Fecal Form Score average ([2]; dose 10 mg/kg) | Urine Na % of control ([5]; dose 10 mg/kg) [%] | Urine P % of control ([1]; dose 1 mg/kg) [%] | Fecal Form Score average ([2]; dose 1 mg/kg) | Urine Na % of control ([5]; dose 1 mg/kg) [%]
CN1Cc2c(Cl)cc(Cl)cc2[C@H](c2cccc(S(=O)(=O)NCCOCCOCCNC(=O)NCCCC(N)(CCCNC(=O)NCCOCCOCCNS(=O)(=O)c3cccc([C@@H]4CN(C)Cc5c(Cl)cc(Cl)cc54)c3)CCCNC(=O)NCCOCCOCCNS(=O)(=O)c3cccc([C@@H]4CN(C)Cc5c(Cl)cc(Cl)cc54)c3)c2)C1 [compound 147] | 32 | 2 | 7.00 | 7.67 | 40 | – | – | – | – | – | –
CN1Cc2c(Cl)cc(Cl)cc2[C@H](c2cccc(S(=O)(=O)NCCOCCOCCNC(=O)CC(O)(CC(=O)NCCOCCOCCNS(=O)(=O)c3cccc([C@@H]4CN(C)Cc5c(Cl)cc(Cl)cc54)c3)C(=O)NCCOCCOCCNS(=O)(=O)c3cccc([C@@H]4CN(C)Cc5c(Cl)cc(Cl)cc54)c3)c2)C1 [compound 78] | – | – | 6.00 | 6.50 | – | 39 | 2 | 53 | – | – | –
CN1Cc2c(Cl)cc(Cl)cc2[C@H](c2cccc(S(=O)(=O)NCCOCCOCCNC(=O)NCCCN(CCCNC(=O)NCCOCCOCCNS(=O)(=O)c3cccc([C@@H]4CN(C)Cc5c(Cl)cc(Cl)cc54)c3)CCCNC(=O)NCCOCCOCCNS(=O)(=O)c3cccc([C@@H]4CN(C)Cc5c(Cl)cc(Cl)cc54)c3)c2)C1 [compound 77] | 79 | 2 | 6.25 | 7.35 | 36 | 41 | 4 | 17 | 82 | 2 | 80
CN(CC(=O)NCCOCCOCCOCCNS(=O)(=O)c1ccc(OC2c3ccccc3CC2N2CCCCC2)cc1)CC(=O)NCCOCCOCCOCCNS(=O)(=O)c1ccc(OC2c3ccccc3CC2N2CCCCC2)cc1 (centres unmarked) [compound 52] | – | – | 7.35 | 7.40 | – | 71 | 1 | 68 | – | – | –
CN1Cc2c(Cl)cc(Cl)cc2[C@H](c2cccc(S(=O)(=O)NCCOCCOCCNC(=O)CCC(CCC(=O)NCCOCCOCCNS(=O)(=O)c3cccc([C@@H]4CN(C)Cc5c(Cl)cc(Cl)cc54)c3)(CCC(=O)NCCOCCOCCNS(=O)(=O)c3cccc([C@@H]4CN(C)Cc5c(Cl)cc(Cl)cc54)c3)NC(=O)N(C)C)c2)C1 [compound 129] | 48 | 2 | 5.60 | 6.90 | 16 | – | – | – | – | – | –
CN1Cc2c(Cl)cc(Cl)cc2[C@H](c2cccc(S(=O)(=O)NCCOCCOCCNC(=O)CCC(CCC(=O)NCCOCCOCCNS(=O)(=O)c3cccc([C@@H]4CN(C)Cc5c(Cl)cc(Cl)cc54)c3)(CCC(=O)NCCOCCOCCNS(=O)(=O)c3cccc([C@@H]4CN(C)Cc5c(Cl)cc(Cl)cc54)c3)NC(=O)NC[C@H](O)[C@@H](O)[C@H](O)[C@H](O)CO)c2)C1 [compound 143] | 93 | 3 | 7.25 | 7.27 | 34 | – | – | – | 73 | 1 | 68
CN(C)[C@H]1Cc2c(Cl)cc(Cl)cc2[C@@H]1Oc1ccc(S(=O)(=O)NCCOCCOCCNC(=O)CCC(C)(N)CCC(=O)NCCOCCOCCNS(=O)(=O)c2ccc(O[C@H]3c4cc(Cl)cc(Cl)c4C[C@@H]3N(C)C)cc2)cc1 [compound 174] | 55 | 1 | 8.60 | 8.53 | 37 | 61 | 1 | 49 | – | – | –
C/C(=C\c1cc(F)c(Oc2ccc(S(=O)(=O)NCCOCCOCCOCCNC(=O)N3CCN(C(=O)NCCOCCOCCOCCNS(=O)(=O)c4ccc(Oc5c(F)cc(/C=C(\C)C(=O)N=C(N)N)cc5F)cc4)CC3)cc2)c(F)c1)C(=O)N=C(N)N [compound 31] | – | – | 7.70 | 7.70 | – | 81 | 1 | 96 | – | – | –
CN(C)[C@H]1Cc2c(F)cc(Cl)cc2[C@@H]1Oc1ccc(S(=O)(=O)NCCOCCOCCNC(=O)NCCCCNC(=O)NCCOCCOCCNS(=O)(=O)c2ccc(O[C@H]3c4cc(Cl)cc(F)c4C[C@@H]3N(C)C)cc2)cc1 [compound 166] | – | – | <5.00 | 8.40 | – | 43 | 1 | 111 | – | – | –
CCCCCCCCCCC(=O)NC(CCC(=O)NCCOCCOCCNS(=O)(=O)c1cccc([C@@H]2CN(C)Cc3c(Cl)cc(Cl)cc32)c1)(CCC(=O)NCCOCCOCCNS(=O)(=O)c1cccc([C@@H]2CN(C)Cc3c(Cl)cc(Cl)cc32)c1)CCC(=O)NCCOCCOCCNS(=O)(=O)c1cccc([C@@H]2CN(C)Cc3c(Cl)cc(Cl)cc32)c1 [compound 94] | – | – | <5.00 | 5.60 | – | 66 | 1 | 67 | – | – | –
O=C(NCCCCNC(=O)NCCOCCOCCNS(=O)(=O)c1ccc(O[C@H]2c3cc(Cl)cc(F)c3C[C@@H]2N2CC[C@@H](O)C2)cc1)NCCOCCOCCNS(=O)(=O)c1ccc(O[C@H]2c3cc(Cl)cc(F)c3C[C@@H]2N2CC[C@@H](O)C2)cc1 [compound 165] | – | – | <5.00 | 8.20 | – | 68 | 1 | 104 | – | – | –
CN1Cc2c(Cl)cc(Cl)cc2[C@H](c2cccc(S(=O)(=O)NCCOCCOCCOCCNC(=O)CCC(CCC(=O)NCCOCCOCCOCCNS(=O)(=O)c3cccc([C@@H]4CN(C)Cc5c(Cl)cc(Cl)cc54)c3)(CCC(=O)NCCOCCOCCOCCNS(=O)(=O)c3cccc([C@@H]4CN(C)Cc5c(Cl)cc(Cl)cc54)c3)NC(=O)c3ccc(-c4ccc(Cl)cc4)cc3)c2)C1 [compound 91] | – | – | 5.30 | <5.00 | – | 56 | 1 | 77 | – | – | –
CN1Cc2c(Cl)cc(Cl)cc2[C@H](c2cccc(S(=O)(=O)NCCOCCOCCOCCNC(=O)NCCCN(CCCNC(=O)NCCOCCOCCOCCNS(=O)(=O)c3cccc([C@@H]4CN(C)Cc5c(Cl)cc(Cl)cc54)c3)CCCNC(=O)NCCOCCOCCOCCNS(=O)(=O)c3cccc([C@@H]4CN(C)Cc5c(Cl)cc(Cl)cc54)c3)c2)C1 [compound 64] | – | – | 7.40 | 8.20 | – | 66 | 1 | 34 | – | – | –

— patent US20240366589A1, “NHE3-BINDING COMPOUNDS AND METHODS FOR INHIBITING PHOSPHATE TRANSPORT” (Ardelyx, Inc., priority 2013, published 2024)
